Laboratory results published in US5596002A, “Method of treating chloroquine-resistant malaria with aminoquinoline derivatives” (Hoffmann-La Roche Inc., priority 1993, dated 1997).
Values after ≈ are worked out from the molar mass of the structure shown. Like-named read-outs stand apart in the source and are kept apart here.

What was measured:
[1] = tested on: Plasmodium falciparum, chloroquine-resistant strain W2 Mef; experiment: activity against P. falciparum in vitro, strain W2 Mef; format: cell-based; conditions: 48 h-72 h, read-out: IC50 (50% growth inhibition)
Protocol: (§1) Test method for the determination of the activity against P. falciparum in vitro
(§2) The preparations of the present invention were tested on intraerythrocytary stages of P. falciparum from asynchronous cultures according to the method of Desjardin et al. (Desjardins, R. E. et al: Quantitative assessment of antimalarial activity in vitro by a semiautomated microdilution technique. Antimicrob. Agents Chemother. 16, 710-718, (1979)).
(§3) The culture medium consisted of RPMI 1640 with the addition of 25 mM HEPES, 25 mM NaHCO3, […] neomycin and 10% human serum (A^+). Human-A^+ erythrocytes were used as the P. falciparum host cells. The parasites were maintained at 37° C. in an atmosphere of 3% O2, 4% CO2, 93% N2 and at 95% relative humidity.
(§4) In order to determine the activity, the preparations were dissolved in DMSO, pre-diluted in the culture medium to a suitable starting concentration and subsequently titrated-out into microtitre plates in the 2nd stage over 6-7 steps. After the addition of the parasite culture (0.7% parasitemia in 2.5% erythrocyte suspension), the test plates were incubated under the conditions given above for 48 h-72 h. The parasite growth in the different preparation concentrations was determined using [G-^3 H]-hypoxanthin incorporation compared to untreated control cultures on the same test plates. The 50% growth inhibition (IC50) was calculated according to logit regression analysis from the resulting dosage-activity curve.
(§5) The preparations were tested on at least one chloroquine-resistant and one chloroquine-sensitive P. falciparum strain. Additional sensitive and resistant strains were also included for further characterization.
(§6) Table 1 below contains the IC50 values measured in vitro for the growth inhibition of chloroquine-sensitive and chloroquine-resistant strains of the human pathogenic Plasmodium falciparum.

[2] = tested on: Plasmodium falciparum, chloroquine-resistant strain RFCR3; experiment: activity against P. falciparum in vitro, strain RFCR3; format: cell-based; conditions: chloroquine-resistant strain RFCR3, 48 h-72 h, read-out: IC50 (50% growth inhibition)
Protocol: as §1, §2, §3, §4, §5, §6

[3] = tested on: Plasmodium falciparum, chloroquine-resistant strain W2; experiment: activity against P. falciparum in vitro, strain W2; format: cell-based; conditions: chloroquine-resistant strain W2, 48 h-72 h, read-out: IC50 (50% growth inhibition)
Protocol: as §1, §2, §3, §4, §5, §6

[4] = tested on: Plasmodium falciparum, chloroquine-resistant strain K1; experiment: activity against P. falciparum in vitro, strain K1; format: cell-based; conditions: Plasmodium falciparum; chloroquine-resistant strain K1; 48 h-72 h; read-out: IC50 (50% growth inhibition)
Protocol: as §1, §2, §3, §4, §5, §6

[5] = tested on: Plasmodium berghei (strain ANKA); experiment: activity against Plasmodium berghei in vivo (infected mice); conditions: mice; for inhibition in vivo at 10 mg/kg: 48 hours after treatment (D+3); for ED50: single administration po, dose reducing average erythrocyte infection rate by 50%, read-out: ED50 (po)
Protocol: Test method for the determination of the activity against Plasmodium berghei in vivo
The preparations according to the present invention were tested on mice infected with malaria pathogens (Plasmodium berghei). Male albino mice (IBM:MORO(SPF), FUELLINSDORF) weighing about 25 g were used as the test animals. They were kept in climatized rooms at 21°-22° C. in groups of 5 animals per cage. They received ad libitum a diet feed with a low PABA content ("NAFAG FUTTER" No. 9009 PAB-45, PABA content 45 mg/kg) and drinking water. On the first day of the test (D0) the test animals were infected with Plasmodium berghei (strain ANKA). For this there was used heparinized blood of a donor mouse with about 30% parasitemia, which was diluted with physiological saline such that it contains 10^8 parasitized erythrocytes per ml. 0.2 ml of this suspension was injected intravenously (i.v.) into the mice to be treated and into the control mice. In untreated control animals the parasitemia normally reaches 30-40% on the third day after the infection (D+3) and the test animals die between days +5 and +7.
The substances to be tested were dissolved or suspended in distilled water or in a mixture of 7% Tween 80, 3% alcohol (96%) and water. Usually, 0.25 ml of this solution or suspension was administered once subcutaneously and perorally to groups of 5 test animals. Treatment was effected 24 hours after the infection. 10 control animals were treated in the same manner with solvent or suspension medium per test.
All substances were tested in a first test in a single dosage of 10 mg/kg. Only those substances which in this test (10 mg/kg) had shown a parasitaemia reduction of 90% were used for the titration.
48 hours after the treatment (D+3), blood smears were prepared from all animals using blood from tail veins and were stained with Giemsa. The average erythrocyte infection rate (parasitemia in %) in the control groups as well as in the groups which had been treated with the test compounds was determined by counting under a microscope. The difference in the average values of the infection rates of control group (100%) and treated groups was calculated and expressed as a percentage reduction (GI %). The ED50 or ED90 was determined mathematically by means of the JMP programme (nonlinear fit). The ED50 (ED90) in mg/kg is that dose which after single administration reduces the average erythrocyte infection rate by 50% (90%) in comparison to the control group.
Table 2 below contains data with respect to the activity measured against Plasmodium berghei in mice: GI % is the percentage reduction in the parasitemia after a single dose of 10 mg/kg of the test substance administered perorally (po) or subcutaneously (sc); ED50 and ED90 are the effective doses of the test substance administered perorally or subcutaneously.

[6] = tested on: Plasmodium falciparum, chloroquine-sensitive strain FCH5C2; experiment: activity against P. falciparum in vitro, strain FCH5C2; format: cell-based; conditions: chloroquine-sensitive strain FCH5C2, 48 h-72 h, read-out: IC50 (50% growth inhibition)
Protocol: as §1, §2, §3, §4, §5, §6

[7] = tested on: Plasmodium falciparum, chloroquine-sensitive strain Ro7 3; experiment: activity against P. falciparum in vitro, strain Ro7 3; format: cell-based; conditions: chloroquine-sensitive strain Ro7 3, 48 h-72 h, read-out: IC50 (50% growth inhibition)
Protocol: as §1, §2, §3, §4, §5, §6

[8] = tested on: Plasmodium falciparum, chloroquine-sensitive strain RFMEF3; experiment: activity against P. falciparum in vitro, strain RFMEF3; format: cell-based; conditions: chloroquine-sensitive strain RFMEF3, 48 h-72 h, read-out: IC50 (50% growth inhibition)
Protocol: as §1, §2, §3, §4, §5, §6

[9] = tested on: Plasmodium falciparum, chloroquine-resistant strain Indo; experiment: activity against P. falciparum in vitro, strain Indo; format: cell-based; conditions: chloroquine-resistant strain Indo, 48 h-72 h, read-out: IC50 (50% growth inhibition)
Protocol: as §1, §2, §3, §4, §5, §6

[10] = tested on: Plasmodium falciparum, chloroquine-resistant strain 7G8; experiment: activity against P. falciparum in vitro, strain 7G8; format: cell-based; conditions: chloroquine-resistant strain 7G8, 48 h-72 h, read-out: IC50 (50% growth inhibition)
Protocol: as §1, §2, §3, §4, §5, §6

[11] = tested on: Plasmodium falciparum, chloroquine-sensitive strain HB3; experiment: activity against P. falciparum in vitro, strain HB3; format: cell-based; conditions: chloroquine-sensitive strain HB3, 48 h-72 h, read-out: IC50 (50% growth inhibition)
Protocol: as §1, §2, §3, §4, §5, §6

[12] = tested on: Plasmodium falciparum, chloroquine-resistant strain ItG2 F6; experiment: activity against P. falciparum in vitro, strain ItG2 F6; format: cell-based; conditions: chloroquine-resistant strain ItG2 F6, 48 h-72 h, read-out: IC50 (50% growth inhibition)
Protocol: as §1, §2, §3, §4, §5, §6

[13] = tested on: Plasmodium falciparum, chloroquine-sensitive strain NF54; experiment: activity against P. falciparum in vitro, strain NF54; format: cell-based; conditions: Plasmodium falciparum; chloroquine-sensitive strain NF54; 48 h-72 h; read-out: IC50 (50% growth inhibition)
Protocol: as §1, §2, §3, §4, §5, §6

[14] = single dose 10 mg/kg po, read-out: GI % at 10 mg/kg (po): percentage reduction in the parasitemia
[15] = single dose 10 mg/kg sc, read-out: GI % at 10 mg/kg (sc): percentage reduction in the parasitemia

| SMILES | IC50 [1] [ng/mL] | IC50 [2] [ng/mL] | IC50 [3] [ng/mL] | IC50 [4] [ng/mL] | inhibition in vivo at 10 mg/kg [5, 14] [%] | inhibition in vivo at 10 mg/kg [5, 15] [%] | IC50 [6] [ng/mL] | IC50 [7] [ng/mL] | IC50 [8] [ng/mL] | IC50 [9] [ng/mL] | IC50 [10] [ng/mL] | IC50 [11] [ng/mL] | IC50 [12] [ng/mL] | IC50 [13] [ng/mL] | ED50 [5] [mg/kg] |
| --- | --- | --- | --- | --- | --- | --- | --- | --- | --- | --- | --- | --- | --- | --- | --- |
| CN(C)C(C)(C)CNc1ccnc2cc(Cl)ccc12 [Example 33b, N1-(7-Chloro-quinolin-4-yl)-2,N2,N2-trimethyl-propane-1,2-diamine] | 18 (≈ 0.0648 µM) | 10 (≈ 0.036 µM) | 9 (≈ 0.0324 µM) | 17 (≈ 0.0612 µM) | 99.9 | 99.9 | 11 (≈ 0.0396 µM) | 4 (≈ 0.0144 µM) | 8 (≈ 0.0288 µM) | 9 (≈ 0.0324 µM) | 18 (≈ 0.0648 µM) | 12 (≈ 0.0432 µM) | 17 (≈ 0.0612 µM) | 8 (≈ 0.0288 µM) |  |
| CCN(CC)CC(C)Nc1ccnc2cc(Cl)ccc12 (racemic) [Example 2, (RS)-N2-(7-Chloro-quinolin-4-yl)-N1,N1-diethyl-propane-1,2-diamine] | 9 (≈ 0.0308 µM) | 8 (≈ 0.0274 µM) | 8 (≈ 0.0274 µM) | 14 (≈ 0.048 µM) | 99.8 | 99.9 | 7 (≈ 0.024 µM) | 6 (≈ 0.0206 µM) | 7 (≈ 0.024 µM) | 6 (≈ 0.0206 µM) | 8 (≈ 0.0274 µM) | 7 (≈ 0.024 µM) | 5 (≈ 0.0171 µM) | 7 (≈ 0.024 µM) | 3.2 |
| Clc1ccc2c(NC3CCN(Cc4ccccc4)CC3)ccnc2c1 [Example 19, (1-Benzyl-piperidin-4-yl)-(7-chloro-quinolin-4-yl)-amine] | 11 (≈ 0.0313 µM) | 10 (≈ 0.0284 µM) | 10 (≈ 0.0284 µM) | 9 (≈ 0.0256 µM) | 99 | 99.6 | 5 (≈ 0.0142 µM) | 3 (≈ 0.00853 µM) | 5 (≈ 0.0142 µM) | 7 (≈ 0.0199 µM) | 7 (≈ 0.0199 µM) | 4 (≈ 0.0114 µM) | 6 (≈ 0.0171 µM) | 7 (≈ 0.0199 µM) | 5.3 |
| C=CCN(C)CCNc1ccnc2cc(Cl)ccc12 [Example 33, N1 -Allyl-N2-(7-chloro-quinolin-4-yl)-N1-methyl-ethane-1,2-diamine] | 15 (≈ 0.0544 µM) | 18 (≈ 0.0653 µM) | 21 (≈ 0.0761 µM) | 14 (≈ 0.0508 µM) | 97 | 97 | 15 (≈ 0.0544 µM) | 10 (≈ 0.0363 µM) | 16 (≈ 0.058 µM) | 14 (≈ 0.0508 µM) | 18 (≈ 0.0653 µM) | 15 (≈ 0.0544 µM) | 9 (≈ 0.0326 µM) | 8 (≈ 0.029 µM) | 5.9 |
| CC(C)(CN1CCCCC1)Nc1ccnc2cc(Cl)ccc12 [Example 14, (7-Chloro-quinolin-4-yl)-(1,1-dimethyl-2-piperidin-1-yl-ethyl)-amine] | 14 (≈ 0.044 µM) | 8 (≈ 0.0252 µM) | 20 (≈ 0.0629 µM) | 21 (≈ 0.0661 µM) |  |  | 8 (≈ 0.0252 µM) | 4 (≈ 0.0126 µM) | 6 (≈ 0.0189 µM) | 10 (≈ 0.0315 µM) | 7 (≈ 0.022 µM) | 9 (≈ 0.0283 µM) | 6 (≈ 0.0189 µM) | 9 (≈ 0.0283 µM) |  |
